Assay results published in patent US20240197666A1, “DITERPENOID COMPOUNDS THAT ACT ON PROTEIN KINASE C (PKC)” (K-Gen Therapeutics, Inc., priority 2021, published 2024).
Read-outs that look alike come from different tables or passages of the source.

Key:
C1b domain of human PKCα = molecular target: T1, C1b domain of human PKCα (Homo sapiens, UniProt P17252); assay: biochemical; type: binding; settings: 3H-PDBu competition
T1 construct: Genes encoding C1b domains of human PKCα, δ, ε, θ, and PKD1 (PKCμ) were synthesized; made in house; host or cells: E. coli BL21(DE3)

KP-4 (Pancreatic) = assay: Proliferation of KP-4; type: cell-based; settings: read-out: IC50 KP-4 (Pancreatic)
Protocol: (§1) The diterpenoid compounds were tested in A549, a non-small cell lung cancer cell line harboring a K-Ras activating mutation. Briefly, A549 cells at a density of 1,000 cells/well were seeded in 96-well plates and incubated at 37° C. for 24 hours. A series of different concentrations of compound stocks (500×) were prepared by 3-fold serial dilution in DMSO. These compounds were further diluted in culture media and then added to cells so that the final DMSO concentration was not exceeding 0.25%. After 96 hours of incubation, 50 μL of CellTiter Glo reagent (Promega) was added to each well and luminescence was measured after 10 minutes using EnVision (PerkinElmer). Luminescence from cells treated with DMSO alone was set as Max and % of inhibition was calculated as follows: Inhibition %=(Max-Sample value)/Max×100. Data was analyzed using XL-fit software (ID Business Solutions Ltd.) and IC50, relative IC50, and % of top inhibition was calculated. Some of the compounds in this disclosure were very potent in blocking proliferation of A549 lung cancer cells at low nM range. In addition, potency of inhibiting A549 proliferation correlated well with its binding affinity to PKCs for this series of compounds. In other words, higher affinity binders had stronger inhibitory effects on A549 proliferation. This further support the notion that activation, rather than inhibition, of certain PKC isoforms is required to block proliferation of cancer cells, some of which may harbor K-Ras mutations. This is in sharp contrast to previous literature and common belief that inhibition of PKC is necessary to block cancer cell growth (Kang, 2014, New Journal of Science, 2014:1-36). Data presented here is in agreement with recent findings that many loss-of-function but not gain-of-function mutations of PKC isoforms have been identified in many human cancers (Antal et al., 2015, Cell, 160:489-502).
(§2) The compounds in this disclosure were tested for their potency in blocking proliferation of a few other cancer cells lines, including K-Ras mutant pancreatic cell lines Panc2.13 and KP-4, leukemia cell line HL-60, and lymphoma cell lines Namalwa and Mino. Similar procedures as in Example 67 were followed. Initial cell numbers seeded in 96-well plates were different for different cell lines: 3000 cells/well for Panc2.13; 800-1000 cells/well for KP-4; 5000 cells/well for HL-60; 5000-10000 cells/well for Namalwa and Mino. A ratio of (IC50 of K101)/(IC50 of compound) (data in parenthesis in Table 5) was used to normalize the compound potency from different assay batches to a common comparator K101.

[1] = molecular target: T2, C1b domain of human PKD1 (PKCμ) (Homo sapiens, UniProt Q15139); assay: Competitive 3H-PDBu binding assay, C1b domain of PKD1 (PKCμ); settings: 3H-PDBu competition
T2 construct: Genes encoding C1b domains of human PKCα, δ, ε, θ, and PKD1 (PKCμ) were synthesized; made in house; host or cells: E. coli BL21(DE3)
T2 sequence (Q15139 270-320 limits assumed): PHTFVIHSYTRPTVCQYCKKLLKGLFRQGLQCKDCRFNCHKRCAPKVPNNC
Procedure, shortened: (§3)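 Recombinant GST-C1b domains (E. coli-expressed) or full-length human PKC competed against tracer ^3H-PDBu; incubation 10 min at 37°C then 20 min on ice, bound radioligand filter-trapped and scintillation-counted. IC50 fitted and converted to Ki via Cheng-Prusoff using experimentally determined Kd per protein preparation.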

C1b domain of human PKCδ = molecular target: T3, C1b domain of human PKCδ (Homo sapiens, UniProt Q05655); assay: biochemical; type: binding; settings: 3H-PDBu competition
T3 construct: Genes encoding C1b domains of human PKCα, δ, ε, θ, and PKD1 (PKCμ) were synthesized; made in house; host or cells: E. coli BL21(DE3)
T3 sequence (Q05655 230-280 limits assumed): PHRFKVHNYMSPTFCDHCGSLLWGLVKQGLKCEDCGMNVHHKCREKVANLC
Procedure, shortened: as §3

C1b domain of human PKCθ = molecular target: T4, C1b domain of human PKCθ (Homo sapiens, UniProt Q04759); assay: biochemical; type: binding; settings: 3H-PDBu competition
T4 construct: Genes encoding C1b domains of human PKCα, δ, ε, θ, and PKD1 (PKCμ) were synthesized; made in house; host or cells: E. coli BL21(DE3)
T4 sequence (Q04759 231-281 limits assumed): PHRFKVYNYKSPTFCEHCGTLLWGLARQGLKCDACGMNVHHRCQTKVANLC
Procedure, shortened: as §3

C1b domain of human PKCε = molecular target: T5, C1b domain of human PKCε (Homo sapiens, UniProt Q02156); assay: biochemical; type: binding; settings: 3H-PDBu competition
T5 construct: Genes encoding C1b domains of human PKCα, δ, ε, θ, and PKD1 (PKCμ) were synthesized; made in house; host or cells: E. coli BL21(DE3)
T5 sequence (Q02156 242-292 limits assumed): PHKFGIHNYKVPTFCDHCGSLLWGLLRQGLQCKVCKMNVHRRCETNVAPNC
Procedure, shortened: as §3

[2] = system: phosphorylation of PKCμ, PKCδ and Erk1/2 in A549 lung cancer cells; assay: Western blot of activation of PKC and downstream target protein in A549 cells; type: cell-based; settings: 30 minutes
Protocol: According to the methods described in patent (WO/2017/083783) A549 lung cancer cells (˜3 million cells) were seeded in 10 cm tissue culture dishes (or ˜1 million cells in 6 cm dish) and grown overnight. Cells were then treated with different drugs at indicated concentrations for 30 minutes. Cell lysate preparation, protein quantitation, SDS-PAGE, and Western blotting procedures are described (WO/2017/083783). β-actin or Vinculin was used as loading controls. Imagequant LAS4000 (GE) was used to scan membranes if secondary antibodies anti-mouse IgG HRP conjugate or anti-rabbit IgG HRP conjugate (dilutions from 1:2000-1:10000) were used. For ProteinSimple Wes system, manufacture's procedure was followed (ProteinSimple 12-230 kDa Wes Separation Module) for sample preparation, loading, running, and data analysis.
Phosphorylation of these sites has been linked to acute activation or catalytic activity of the PKC isoforms and Erk1/2. High level of phosphorylation indicates strong activation.
A subset of the diterpenoid compounds with good binding affinity to novel PKC isoforms and PKCμ was tested at two different concentrations in A549 cells to assess activation of PKCμ, PKCδ, and Erk1/2 by Western blot analysis. In addition to the phospho-specific antibodies described above, an additional phospho-specific antibody P-PKCδ (S299) (Abcam cat #133456) was also used. This antibody has been shown in the literature (Durgan et al., FEBS Lett. 2007, 581(18):3377-81, Novel phosphorylation site markers of protein kinase C delta activation) to be able to detect activation of PKCδ. K-101 (prostratin, 1 μM) was included as reference compounds.

Namalwa (Lymphoma) = assay: Proliferation of Namalwa; type: cell-based; settings: for IC50: read-out: IC50 Namalwa (Lymphoma)
Procedure, shortened: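 Luminescent ATP read-out (CellTiter Glo) after 96 h compound exposure gave % inhibition relative to DMSO-treated cells, from which IC50 was fitted. Seeding densities were line-specific, from 800 to 10000 cells/well. Potency across batches was normalised to reference compound K101.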

Panc2.13 (Pancreatic) = assay: Proliferation of Panc2.13; type: cell-based; settings: for IC50: read-out: IC50 Panc2.13 (Pancreatic)
Protocol: as §1, §2

A549 cell line = assay: Proliferation of A549 (CellTiter Glo); type: cell-based; settings: read-out: IC50 μM (A549 Cell Line)
Procedure, shortened: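 A549 cells (K-Ras-mutant NSCLC) were seeded at 1,000 cells/well, allowed 24 h to settle, then exposed for 96 h to 3-fold serially diluted compound (final DMSO ≤0.25%). CellTiter Glo luminescence was read, and inhibition was calculated relative to DMSO-only wells. IC50, relative IC50 and % top inhibition came from curve fitting.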

HL-60 (Leukemia) = assay: Proliferation of HL-60; type: cell-based
[3] = system: NFκB-driven transcription in HeLa-NFκB luciferase reporter cell line; assay: NFκB luciferase reporter assay
Mino (Lymphoma) = assay: Proliferation of Mino; type: cell-based; settings: for IC50: read-out: IC50 Mino (Lymphoma)
Procedure, shortened: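 Cells seeded per line (KP-4 800-1000, Panc2.13 3000, Namalwa and Mino 5000-10000 cells/well), 24 h at 37° C, then 96 h with 3-fold serial dilutions of compound, final DMSO ≤0.25%. CellTiter Glo luminescence read; % inhibition vs DMSO-only max, IC50 fitted. Potency also normalized as ratio to comparator K101 across batches.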

PANC1 cells = assay: Sphere formation assay; type: cell-based; settings: Homo sapiens, PANC-1, read-out: concentration exhibiting at least 50% inhibition on the sphere forming efficiency
Protocol: A group of diterpenoid compounds of the present disclosure were tested to assess their effects on blocking formation of spheres from cancer cell lines such as PANC1, a K-Ras mutant pancreatic cell line. Briefly, PANC1 cells were harvested, re-suspended as single cell suspensions, counted and seeded into Ultra Low Attachment Culture 96-well plate (Corning, Cat #3474) at 100 cells/well in 100 μl of complete media (with 10% FBS) containing 2% Matrigel (Corning, Cat #354234) and DMSO or compounds. Six replicates per condition were seeded. The seeded cells were placed in the 37° C. tissue culture incubator. 10 μl of low serum containing media (with 0.1% FBS) was added to each well every week. Spheres formed after 3-4 weeks were counted. Sphere forming efficiency was expressed as percentage of # of spheres/ # of cells seeded.

[4] = Homo sapiens, HeLa, 16 h, read-out: NFκB-luc HeLa cells EC50 (μM)

Structure (SMILES) | Ki (C1b domain of human PKCα) [nM] | IC50 (KP-4 (Pancreatic)) [nM] | ratio (IC50 of K101)/(IC50 of compound) Namalwa (Namalwa (Lymphoma)) | IC50 (Namalwa (Lymphoma)) [nM] | ratio (IC50 of K101)/(IC50 of compound) Panc2.13 (Panc2.13 (Pancreatic)) | IC50 (Panc2.13 (Pancreatic)) [nM] | ratio (IC50 of K101)/(IC50 of compound) HL-60 (HL-60 (Leukemia)) | ratio (IC50 of K101)/(IC50 of compound) Mino (Mino (Lymphoma)) | phosphorylation of PKCμ, PKCδ and Erk1/2 ([2]; 0.3 μM) | IC50 (A549 cell line; Homo sapiens, A549, 96 h) [µM] | EC50 [3, 4] [µM] | IC50 (Mino (Lymphoma); Homo sapiens, MINO) [nM] | further results
CC1=C[C@H]2[C@@]3(O)[C@H](C)C[C@]4(OC(=O)[C@@H](N)Cc5ccccc5)[C@H]([C@@H]3C=C(CO)C[C@]2(O)C1=O)C4(C)C | 400 to 800 | 600 to 1000 | 0.19 | 200 to 600 | 0.75 | 1000 to 2000 | 0.9 | 0.57 | – | – | – | – | Ki [1]: 10 to 30 nM; Ki (C1b domain of human PKCδ): 30 to 60 nM; Ki (C1b domain of human PKCθ): 30 to 60 nM; Ki (C1b domain of human PKCε): 100 to 200 nM; phosphorylation of PKCμ, PKCδ and Erk1/2 ([2]; 3 μM): induced phosphorylation; IC50 (A549 cell line; 96 hours, CellTiter Glo): 0.6 to 1 µM; IC50 (HL-60 (Leukemia); read-out: IC50 HL-60 (Leukemia)): 200 to 600 nM; EC50 ([3]; read-out: NFκB-luc HeLa cells EC50, 16h): 0.2 to 0.6 µM; IC50 (Mino (Lymphoma)): 100 to 200 nM
CC1=C[C@H]2[C@@]3(O)[C@H](C)C[C@]4(OC(=O)[C@@H](N)CCCc5ccccc5)[C@H]([C@@H]3C=C(CO)C[C@]2(O)C1=O)C4(C)C | 60 to 100 | 100 to 200 | 1.53 | 30 to 60 | 3.65 | 200 to 600 | 1.79 | 6 | induced high levels of phosphorylation | 0.06 to 0.1 | 0.06 to 0.1 | 10 to 30 | IC50 (HL-60 (Leukemia); Homo sapiens, HL-60, read-out: IC50 HL-60 (Leukemia)): 30 to 60 nM; IC50 (PANC1 cells): ≤ 1500 nM
CC1=C[C@H]2[C@@]3(O)[C@H](C)C[C@]4(OC(=O)CCc5ncc(-c6ccc(Cl)cc6)o5)[C@H]([C@@H]3C=C(CO)C[C@]2(O)C1=O)C4(C)C | 60 to 100 | – | 1.15 | 30 to 60 | – | – | 5.71 | 5.36 | induced high levels of phosphorylation | 0.03 to 0.06 | 0.1 to 0.2 | 10 to 30 | IC50 (HL-60 (Leukemia); Homo sapiens, HL-60, 96 h, read-out: IC50 HL-60 (Leukemia)): 100 to 600 nM
